One data set deals with A549 lung cancer cells. The settings on record: for tumor weight lower (minus % compared to DMSO-treated control): after 7 weeks; for BrdU+ cells/field in tumor tissue: control about 6.3; for TUNEL+ cells/field in tumor tissue: control about 15.5; for tumor size versus control group: 6S 30 mg/kg, M2 30 mg/kg, M14 10 mg/kg, oral gavage 5×/week. The procedure: Nu/J nude mice were obtained from Jackson Laboratories (Bar Harbor, Me.). Animals were randomized into 4 groups. A549 cells (5×10^6 cells) were implanted in both flanks of 8-weeks old Nu/J mice. One week after implantation, animals were given 100 μl of the following treatments through oral gavage 5 times/week: DMSO 0.25 ml/kg (control; n=4); 6S 10 mg/kg (n=4); 6S 30 mg/kg (n=4) or M2 30 mg/kg (n=5). Compounds were diluted in a solution of 5% DMSO in corn oil. Animal body weight and tumor volume were recorded for the duration of the experiment. Tumor volume was calculated by measuring the length and width of the tumors using a digital caliper and using the formula (Length×Width^2)/2. One hour before sacrifice, mice were given one last treatment dose as well as one intra-peritoneal injection of BrdU (7.5 mg/kg in 100 μl PBS). After 7 weeks, tumor tissues were harvested and weighed. A portion of the tumors was snap frozen in liquid nitrogen and another portion was placed in a histology cassette and immersed in formalin solution.
[…] tissues were sent to Precision Histology Lab (Oklahoma City, Okla.) for embedding in paraffin blocks. Then paraffin blocks were processed into 3-4 μm sections that were then put on microscope slides. Sections were then deparaffinized by using a succession of 3 baths of xylene (5 minutes each), 2 baths of absolute ethanol (5 minutes each), 95% ethanol for 3 minutes, 70% ethanol for 3 minutes, and rinsed in PBS. Immunostaining with TUNEL (terminal deoxynucleotidyl transferase dUTP nick end labeling) and BrdU staining kits was performed following manufacturer's recommendation. For staining quantification, sequential high-power field pictures of tumors were taken (10 pictures per tumor) using an A1 Zeiss microscope (Oberkochen, Germany). Images were processed using the Image J software, which was used to count positive, brown-colored cells in each field. Average number per tumor was calculated by averaging the number obtained for each field, and the average number of positive cells per group was obtained by averaging the values of each tumor belonging to the experimental group.
8 week-old nude mice (Jackson Laboratory, Maine) were randomized into 5 groups based on treatment (DMSO: n=4; 6S 10 mg/kg: n=4 (“6S 10”); 6S 30 mg/kg: n=4 (“6S 30”); M2 30 mg/kg: n=5 (“M2 30”); M14 10 mg/kg: n=4 (“M14 10”)). Animals were implanted with 5×10^6 A549 lung cancer cells (adenocarcinomic human alveolar basal epithelial cells) on each flank. The mice had access to food and water ad libitum. One week post implantation, the animals started receiving their respecting treatments through oral gavage (100 μl in corn oil and 5% DMSO), 5×/week. After 7 weeks of treatment, the tumor tissues were harvested.

The subject of data set [1] is human colon cancer cells HCT-116. Briefly: MTT growth inhibition of human cancer and normal cells (Part 2). The format is cell-based. The settings on record: HCT-116, 48 h, 0 to 80 μM. The procedure: (§1) Growth inhibition of human cancer and normal cells. Cell growth inhibition was determined by a MTT colorimetric assay. Human colon cancer cells HCT-116, human lung cancer cells H-1299, human colon fibroblast cells CCD-18Co, and human lung fibroblast cells IMR-90 were plated in 96-well microtiter plates with 3000 cells/well and allowed to attach for 24 h at 37° C. […] After the cells were cultured for 48 h, the medium was aspirated and cells were treated with 200 μL fresh medium containing 2.41 mmol/L MTT. […] The reading reflected the number of viable cells and was expressed as a percentage of viable cells in the control. Both HCT-116 and H-1299 cells were cultured in McCoy's 5A medium. CCD-18Co and IMR-90 cells were cultured in Eagle's modified essential medium (EMEM). All of the above media were supplemented with 10% fetal bovine serum, 1% penicillin/streptomycin, and 1% glutamine, and the cells were kept in a 37° C. incubator with 95% humidity and 5% CO2.

Data set [2] concerns human lung cancer cells H-1299. The description is as above. The format is cell-based. The settings on record: H-1299, 48 h, 0 to 80 μM. The procedure:
as §1

Data set [3] relates to A549 cells. Briefly: Cell Death Detection ELISA apoptosis (Part 4). In kind it is cell-based, human. Conditions: A549, 20 μM, 24 hours; for enrichment factor (small nucleosomes, ELISA): with pft. The procedure:
The Cell Death Detection ELISA (Enzyme-linked immunoabsorbant assay) Plus kit from Roche (Mannheim, Germany) was used. […] After 24 hours, the microplate was centrifuged for 10 minutes at 1200 rpm, and the supernatant was removed. 200 μl of the lysis buffer was added in each well and incubated for 30 minutes at room temperature. The plate was then centrifuged for 10 minutes at 1200 rpm and 20 μl of the supernatant was transferred to streptavidin-coated micro-wells. ELISA assay was performed according to manufacturer's instruction. Absorbance in each well was measured at 405 nm in absorbance units (AU), and the enrichment factor (EF) in small nucleosomes was calculated with the formula EF=AU treated/AU DMSO.
A general note: An ELISA detects its analyte on a solid surface through an enzyme-linked reagent.

In another data set the test system is A549 cancer cells. Briefly: MTT cell viability (Part 4). Conditions: A549, 24 hours, read-out: IC50 (toxicity, MTT). In kind it is cell-based, human.
The test system of data set [4] is A549 cells. Description: Western blotting of apoptosis and p53 pathway markers. In kind it is cell-based, human. The settings on record: A549, 20 or 40 μM; for p53 levels (Western blot): 2 and 24 hours; for pro-apoptotic markers cytochrome C, cleaved caspase 3 and 9 (Western blot): 2 hours. The procedure:
Cell extracts were prepared by incubating cells for 5 minutes on ice with RIPA (Radio-Immunoprecipitation Assay) buffer (Thermo Fisher Scientific, Rockford, Ill.) supplemented with a protease and phosphatase inhibitor mix. Cell lysate was then centrifuged at 13,000 rpm at 4° C. for 20 minutes, and supernatant was harvested for Western blot analysis. Briefly, 30-60 μg of protein extract were separated on a 10-16% polyacrylamide gel and transferred on PVDF (polyvinylidene difluoride) membrane (Biorad, Hercules, Calif.). Membrane was blocked using a 1% casein solution in TBS-Tween 20. Primary rabbit antibodies were diluted in blocking solution and incubated with the membrane overnight at 4° C. After washing the membrane with 3 changes of TBS-T, secondary Horse Radish Peroxydase (HRP)-conjugated anti-rabbit antibody was diluted 1:3000 in blocking solution and incubated with PVDF membrane for 1 hour at room temperature. […] Films were developed using a SRX-101A Konica Minolta developer (Tokyo, Japan). The experiment was repeated independently twice to confirm the results. Fold-induction of proteins calculated by normalizing the band of interest to the loading control (β-actin), and this adjusted intensity what compared to the control (DMSO) sample.
In general terms: Immunoblotting shows a protein as a band on a membrane.

The test system of data set [5] is IMR90 normal human lung cells. Description: MTT cell viability (Part 4). The format is cell-based. The settings on record: read-out: IC50 (toxicity, MTT).
A short description of data set [6]: Kinetic study of [6]-shogaol metabolism to M6 in liver microsomes. The format is in vitro ADME, mouse. Conditions: mouse liver microsomes 0.1 mg/mL, 30 min; read-out: Km of M6 formation. The procedure: All incubations were performed in triplicate.
On the technique in general: Liver microsomes are a subcellular fraction often used to study metabolism.

[7] abbreviates: M2 30 mg/kg vs 6S 30 mg/kg, 7 weeks.

We go through two molecules from patent US9549911B2, “Ginger metabolites and uses thereof” (North Carolina A&T State University, priority 2012, dated 2017).

Where two headings read alike, the source gives them in different places.

In general, IC50 refers to the point on the concentration scale where inhibition reaches its midpoint. As to `CCCCCC(CC(=O)CCc1ccc(O)c(OC)c1)SC[C@H](N)C(=O)O` (stereo partly drawn) [M2, 5-cysteinyl-[6]-shogaol], the “tumor weight lower (minus % compared to DMSO-treated control)” value in the data set on A549 lung cancer cells (30 mg/kg oral gavage 5×/week) was 53.7%. Moreover, the “BrdU+ cells/field in tumor tissue” value with A549 lung cancer cells (30 mg/kg) is 5.7 BrdU+ cells/field. Also, the “TUNEL+ cells/field in tumor tissue” value with A549 lung cancer cells (30 mg/kg) was found to be 28.6 TUNEL+ cells/field. The “tumor size versus control group” value in the data set on A549 lung cancer cells (7 weeks) is on record as “Reduction in tumor size”. Further, in the data set on A549 lung cancer cells (setting [7]), the “decrease of tumor burden relative to the equivalent 6S group” value is 21.8%. In addition, the “lower tumor burden than the equivalent 6S group compared to DMSO” value in the data set on A549 lung cancer cells (setting [7]) is on record as 12.9%. Besides, in the data set with A549 lung cancer cells (oral gavage up to 7 weeks), the “changes in body weight between groups” value is recorded as “did not induce any significant changes in body weight”. Further, the IC50 in data set [1] worked out at 24.4 µM; in data set [2], 25.8 µM; with A549 cancer cells, 30.4 µM; in data set [5], 98.3 µM. The “enrichment factor (small nucleosomes, ELISA)” value with A549 cells [3] was 2. Moreover, in the data set on A549 cells [4], the “p53 levels (Western blot)” value was “increase in p53 levels”. Moreover, the “pro-apoptotic markers cytochrome C, cleaved caspase 3 and 9 (Western blot)” value with A549 cells [4] is listed as “elevated after 2 hours”.
The Km is the concentration of substrate that gives half-maximal velocity. For the molecule `CCCCC/C=C/C(=O)CCc1ccc(O)c(OC)c1` [[6]-shogaol, reference compound], the “tumor weight lower (minus % compared to DMSO-treated control)” value in the data set on A549 lung cancer cells (10 mg/kg oral gavage 5×/week, not significant) was 25.6%; with A549 lung cancer cells (30 mg/kg oral gavage 5×/week), 40.8%. For the same molecule, the results for the “BrdU+ cells/field in tumor tissue” value in the data set with A549 lung cancer cells (10 mg/kg) and in the data set on A549 lung cancer cells (30 mg/kg) were 4.7 BrdU+ cells/field and 3.4 BrdU+ cells/field, respectively. Moreover, the “TUNEL+ cells/field in tumor tissue” value in the data set with A549 lung cancer cells (10 mg/kg) was determined as 27.8 TUNEL+ cells/field; with A549 lung cancer cells (30 mg/kg) it was 32.6 TUNEL+ cells/field. Besides, the “tumor size versus control group” value with A549 lung cancer cells (7 weeks) is recorded as “Reduction in tumor size”. The IC50 in data set [1] amounted to 18.2 µM; in data set [2], 17.9 µM; in the data set on A549 cancer cells (listed as 6S), 25.2 µM; in data set [5] (listed as 6S), 36.6 µM. The “enrichment factor (small nucleosomes, ELISA)” value with A549 cells [3] is “about 1”. Moreover, the “enrichment factor (cytoplasmic histone-associated DNA fragments, ELISA)” value in the data set on A549 cells [3] (without pft) turned out to be 2.2. In addition, the “p53 levels (Western blot)” value in the data set with A549 cells [4] is “increase in p53 levels”. Also, the “pro-apoptotic markers cytochrome C, cleaved caspase 3 and 9 (Western blot)” value with A549 cells [4] is reported as “elevated after 2 hours”. Also, in data set [6], the Km was found to be 75.7 µM.
